Type in all cases: cell-based, Human
For test [1], the system named is S100A7. The experiment in a line: AMP gene expression in keratinocytes (real time qPCR), S100A7. The conditions noted are these: NHEK cells, 12HSA at 1 μM (=0.00003 wt %), 24 h. An excerpt: (§1) The following protocol was used for evaluating actives (12-HSA) on keratinocytes for AMP gene expression Normal Human Epidermal Keratinocyte cells (NHEK), EpiLife Keratinocyte Growth Medium (KGM) (with antibiotics Pen-Strep), Dulbecco's Phosphate Buffered Salone (DPBS), Trypsin-EDTA, Trypsin Neutralizer Solution, Ethanol, RNA extraction kit (RNeasy kit), RLT buffer, RT-PCR kit. • 1. Thaw the NHEK cells and expand them in KGM in 2-25 cc and then 75 cc flasks to 80% confluency, changing media every alternate day and incubating at 37° C. in a 5% CO2 incubator. • 2. Discard spent media and rinse the adhered cells in the flask with DPBS. Add Trypsin-EDTA and tap to dislodge the adhered cells. Add Trypsin Neutralizer and gently mix it. • 3. Transfer the contents to a 15-ml tube and spin down the cells. Discard supernatant and resuspend cells in KGM. Count and seed 30,000-50,000 cells per well in 24 well TC plates, incubate to 80-85% confluence (˜2-3 days). Change media every alternate day. Add differentiation media (KGM with 2 mM CaCl2) and incubate for 2-3 days. • 4. Prepare actives in KGM at the required concentration (final concentration of ethanol solvent, if used, should be less than 0.1%). • 5. […] Perform RNA extraction as per the kit, quantify the RNA, do cDNA synthesis and do real time qPCR for cDNA samples. […]

Test [2] concerns LL-37. Kind of test: AMP gene expression in keratinocytes (real time qPCR), LL-37. Conditions: NHEK cells, 12HSA at 1 μM (=0.00003 wt %), 24 h.
Text: as §1
(In qPCR the cycle at which signal appears reflects the starting amount.)

Test [3] has as its system RNase7. The experiment in a line: AMP gene expression in keratinocytes (real time qPCR), RNase7. The conditions noted are these: NHEK cells, 12HSA at 1 μM (=0.00003 wt %), 24 h.
Text: as §1

For test [4], the system named is Psoriasin (S100A7). The experiment in a line: AMP secretion from keratinocytes (Psoriasin ELISA). The conditions noted are these: NHEK cells, 72 h, ELISA of supernatant. An excerpt:
Psoriasin (S100A7) AMP from the above list was chosen to study the effect of concentration of 12-HSA on the secretion of the AMP. The procedure used was as follows: Normal Human Epidermal Keratinocyte cells (NHEK), EpiLife Keratinocyte Growth Medium (KGM) (with antibiotics Pen-Strep), Dulbecco's Phosphate Buffered Salone (DPBS), Trypsin-EDTA, Trypsin Neutralizer Solution, Ethanol, Psoriasin ELISA Kit. • 1. Thaw the NHEK cells and expand them in KGM in 2 -25 cc and then 75 cc flasks to 80% confluency, changing media every alternate day and incubating at 37° C. in a 5% CO2 incubator. • 2. Discard spent media and rinse the adhered cells in the flask with DPBS. Add Trypsin-EDTA and tap to dislodge the adhered cells. Add Trypsin Neutralizer and gently mix it. • 3. Transfer the contents to a 15-ml tube and spin down the cells. Discard supernatant and resuspend cells in KGM. Count and seed 30,000-50,000 cells per well in 24 well TC plates, incubate to 80-85% confluence (˜2-3 days). Change media every alternate day. Add differentiation media (KGM with 2 mM CaCl2) and incubate for 2-3 days. • 4. Prepare actives in KGM at the required concentration (final concentration of ethanol solvent, if used, should be less than 0.1%). • 5. Replace the differentiation media with the actives containing media and incubate for 72 h • 6. Collect supernatant and store at −80° C. Thaw them completely before performing ELISA to measure AMP (Psoriasin). • 7. For ELISA, run the required standards and samples (undiluted and diluted) and using standard plot, the amount of AMP in samples calculated.
On the technique in general: An ELISA detects its analyte on a solid surface through an enzyme-linked reagent.

Test [5] deals with HBD-3. The experiment in a line: AMP gene expression in keratinocytes (real time qPCR), HBD-3. The conditions noted are these: NHEK cells, 12HSA at 1 μM (=0.00003 wt %), 24 h.
Text: as §1

Structures are written as SMILES.

On to `CCCCCCC(O)CCCCCCCCCCC(=O)O` (centres unmarked) [12-HSA, 12-hydroxystearic acid], for which the “Fold change with respect to control, AMP gene S100A7” value in test [1] is given as 1.66 fold. Also, in test [2], the “Fold change with respect to control, AMP gene LL-37” value worked out at 2.09 fold. The “Fold change with respect to control, AMP gene RNase7” value in test [3] was 2.56 fold. Further, the “Fold change with respect to control (Psoriasin increase)” value in test [4] (0.25 μM 12-HSA) was determined as 8.12 fold; in test [4] (0.50 μM 12-HSA), 15.07 fold; in test [4] (1.0 μM 12-HSA), 9.79 fold; in test [4] (2.0 μM 12-HSA) it was 15.70 fold. In test [5], the “Fold change with respect to control, AMP gene HBD-3” value amounted to 2.16 fold.

Values taken from patent US20240000738A1, “HYDROXYSTEARIC ACID FOR INDUCING GENERATION OF ANTIMICROBIAL PEPTIDES” (Conopco, Inc., d/b/a UNILEVER, priority 2020, published 2024).
